Reference: the supplement of paper PMC10307832

How the values were obtained:
Test in all cases: relative viability (nuclei count vs DMSO), 5 days (fraction); higher = more cells survive
VE-821 + Bortezomib = compound: CS(=O)(=O)c1ccc(-c2cnc(N)c(C(=O)Nc3ccccc3)n2)cc1 [VE-821] + CC(C)C[C@H](NC(=O)[C@H](Cc1ccccc1)NC(=O)c1cnccn1)B(O)O [Bortezomib] (partner 0.002 µM)
Outline: (§1)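 Relative viability divides the nuclei count in treated wells by that in vehicle wells. Lung cancer cell lines were seeded in 1536-well plates, dosed by pin tool the next day, and fixed and stained after 5 days in one step with final 0.05% Triton X-100, 1% formaldehyde and 1 ug/ml Hoechst. Dosing was a single drug or a fixed anchor-drug dose plus five library-drug doses (not always all listed) in √10 steps, and values are medians of duplicate plates imaged at 4×.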

VE-821 + Crizotinib = compound: CS(=O)(=O)c1ccc(-c2cnc(N)c(C(=O)Nc3ccccc3)n2)cc1 [VE-821] + C[C@@H](Oc1cc(-c2cnn(C3CCNCC3)c2)cnc1N)c1c(Cl)ccc(F)c1Cl [Crizotinib] (partner 1 µM)
Outline: as §1

Vismodegib + Decitabine = compound: CS(=O)(=O)c1ccc(C(=O)Nc2ccc(Cl)c(-c3ccccn3)c2)c(Cl)c1 [Vismodegib] + Nc1ncn([C@H]2C[C@H](O)[C@@H](CO)O2)c(=O)n1 [Decitabine] (partner 2 µM)
Outline: as §1

Ruxolitinib + Luminespib = compound: N#CC[C@H](C1CCCC1)n1cc(-c2ncnc3[nH]ccc23)cn1 [Ruxolitinib] + CCNC(=O)c1noc(-c2cc(C(C)C)c(O)cc2O)c1-c1ccc(CN2CCOCC2)cc1 [Luminespib] (partner 0.01 µM)
Outline: as §1

Row | Cell Line | relative viability (VE-821 + Bortezomib; first compound 0.08 µM) | relative viability (VE-821 + Bortezomib; first compound 0.253 µM) | relative viability (VE-821 + Bortezomib; first compound 0.8 µM) | relative viability (VE-821 + Bortezomib; first compound 2.53 µM) | relative viability (VE-821 + Bortezomib; first compound 8 µM) | relative viability (VE-821 + Crizotinib; first compound 0.08 µM) | relative viability (VE-821 + Crizotinib; first compound 0.253 µM) | relative viability (VE-821 + Crizotinib; first compound 0.8 µM) | relative viability (VE-821 + Crizotinib; first compound 2.53 µM) | relative viability (VE-821 + Crizotinib; first compound 8 µM) | relative viability (Vismodegib + Decitabine; first compound 0.08 µM) | relative viability (Vismodegib + Decitabine; first compound 0.253 µM) | relative viability (Vismodegib + Decitabine; first compound 0.8 µM) | relative viability (Vismodegib + Decitabine; first compound 2.53 µM) | relative viability (Vismodegib + Decitabine; first compound 8 µM) | relative viability (Ruxolitinib + Luminespib; first compound 0.08 µM) | relative viability (Ruxolitinib + Luminespib; first compound 0.253 µM) | relative viability (Ruxolitinib + Luminespib; first compound 0.8 µM) | relative viability (Ruxolitinib + Luminespib; first compound 2.53 µM) | relative viability (Ruxolitinib + Luminespib; first compound 8 µM)
1 | NCI-H727 | 0.872 | 0.817 | 0.741 | 0.761 | 0.493 | 0.866 | 0.804 | 0.898 | 0.739 | 0.394 | 0.9 | 1.01 | 0.857 | 0.837 | 0.9 | 0.3 | 0.357 | 0.655 | 0.35 | 0.2
2 | NCI-H2023 | 1.08 | 0.902 | 0.763 | 0.549 | 0.218 | 0.715 | 0.659 | 0.395 | 0.316 | 0.193 | 0.224 | 0.197 | 0.285 | 0.246 | 0.236 | 0.73 | 0.74 | 0.674 | 0.438 | 0.568
3 | LCLC-103H | 1.12 | 0.938 | 1.01 | 1.06 | 1.09 | 1.08 | 1 | 0.998 | 1.08 | 1.1 | 0.74 | 0.755 | 0.768 | 0.726 | 0.735 | 0.851 | 0.862 | 0.959 | 1.04 | 0.956
4 | HARA | 1.4 | 1.07 | 1.22 | 1.23 | 1.05 | 1.36 | 1.07 | 1.06 | 1.07 | 0.903 | 0.553 | – | 0.514 | 0.509 | 0.55 | 0.9 | 0.83 | 0.897 | 0.839 | 0.342
5 | RERF-LC-KJ | 1.15 | 1.13 | 0.957 | 1.03 | 0.82 | 0.839 | 0.806 | 0.775 | 0.701 | 0.693 | 0.704 | 0.7 | 0.765 | 0.654 | 0.633 | 1.21 | 1.31 | 1.4 | 1.21 | 0.919
6 | NCI-H2009 | 0.952 | 0.967 | 0.993 | 1.07 | 0.814 | 1.08 | 1.01 | 0.963 | 1.02 | 0.879 | 0.363 | 0.377 | 0.366 | 0.416 | 0.344 | 0.99 | 1.1 | 0.99 | 0.93 | 0.817
7 | NCI-H2126 | 1.22 | 1.04 | 1.11 | 1.04 | 1.09 | 1.02 | 0.954 | 0.954 | 0.965 | 0.859 | 0.598 | 0.544 | 0.592 | 0.549 | 0.611 | 0.879 | 0.922 | 1.13 | 0.933 | 0.784
8 | NCI-H460 | 1.51 | 1.05 | 0.977 | 0.823 | 0.248 | 1.5 | 0.818 | 0.588 | 0.359 | 0.186 | 0.603 | 0.467 | 0.544 | 0.486 | 0.54 | 0.0343 | 0.0362 | 0.0405 | 0.0294 | 0.027
9 | NCI-H647 | 1.39 | 0.825 | 0.804 | 1.08 | 0.569 | 1.11 | 1.05 | 1.02 | 0.935 | 0.42 | 0.38 | 0.327 | 0.38 | 0.385 | 0.409 | 0.18 | 0.228 | 0.367 | 0.0851 | 0.144
10 | NCI-H23 | 1 | 0.991 | 1.14 | 0.829 | 0.323 | 0.788 | 0.495 | 0.501 | 0.508 | 0.272 | 0.362 | 0.321 | 0.329 | 0.323 | 0.358 | 0.195 | 0.209 | 0.242 | 0.214 | 0.191
11 | H3255 | 0.799 | 0.882 | 0.813 | 0.853 | 0.906 | 1.05 | 0.981 | 0.761 | 1.03 | 0.847 | 0.569 | 0.567 | 0.578 | 0.604 | 0.562 | 0.85 | 0.881 | 1.07 | 0.841 | 0.865
12 | NCI-H1651 | 0.978 | 0.964 | 1.07 | 1.04 | 0.921 | 0.844 | 0.914 | 0.853 | 0.837 | 0.872 | 0.581 | 0.617 | 0.682 | 0.528 | 0.579 | 0.883 | 0.902 | 0.979 | 0.73 | 0.726
13 | NCI-H1734 | 1.3 | 0.873 | 0.878 | 0.879 | 0.611 | 0.827 | 0.649 | 0.585 | 0.726 | 0.541 | 0.466 | 0.437 | 0.47 | 0.505 | 0.499 | 0.167 | 0.197 | 0.198 | 0.162 | 0.185
14 | NCI-H1993 | 1.25 | 0.869 | 0.967 | 1.16 | 0.812 | 0.897 | 0.844 | 0.809 | 0.852 | 0.686 | 0.524 | 0.68 | 0.588 | 0.587 | 0.543 | 0.758 | 0.784 | 0.863 | 0.508 | 0.803
15 | NCI-H1755 | 1.01 | 0.95 | 0.941 | 0.898 | 0.79 | 0.969 | 0.841 | 0.69 | 0.835 | 0.722 | 0.686 | 0.727 | 0.693 | 0.677 | 0.723 | 0.452 | 0.45 | 0.699 | 0.351 | 0.362
16 | SK-LU-1 | 1.28 | 1.13 | 0.99 | 1.12 | 1.21 | 0.788 | 0.863 | 0.884 | 0.591 | 0.387 | 0.619 | 0.639 | 0.588 | 0.618 | 0.607 | 0.185 | 0.204 | 0.255 | 0.182 | 0.207
17 | ChaGo-K-1 | 1 | 1.01 | 1.24 | 0.989 | 0.812 | 1.18 | 1.18 | 1 | 1.17 | 0.989 | 0.503 | 0.508 | 0.504 | 0.505 | 0.561 | 0.635 | 0.655 | 0.605 | 0.492 | 0.517
18 | LCLC-97TM1 | 0.633 | 0.634 | 0.726 | 0.541 | 0.568 | 0.537 | 0.381 | 0.413 | 0.632 | 0.174 | 0.214 | 0.25 | 0.351 | 0.229 | 0.223 | 0.617 | 0.657 | 0.78 | 0.626 | 0.904
19 | NCI-H661 | 0.885 | 0.953 | 0.767 | 0.895 | 0.72 | 1.08 | 0.942 | 1.05 | 0.997 | 1.06 | 0.47 | 0.528 | 0.549 | 0.575 | 0.577 | 0.892 | 1.01 | 0.93 | 0.94 | 0.768
20 | SW 1573 | 1.23 | 1.05 | 1.15 | 1.15 | 1.01 | 0.944 | 0.675 | 0.636 | 0.963 | 0.855 | – | 0.425 | 0.509 | 0.519 | 0.615 | 0.228 | 0.214 | 0.184 | 0.241 | 0.21
21 | NCI-H1975 | 0.482 | 0.333 | 0.381 | 0.393 | 0.347 | 1.02 | 0.944 | 0.777 | 0.758 | 0.652 | 0.386 | 0.444 | 0.396 | 0.414 | 0.404 | 0.172 | 0.191 | 0.241 | 0.232 | 0.153
22 | EPLC-272H | 0.955 | 0.927 | 1.12 | 1.13 | 0.814 | 1.04 | 0.853 | 0.923 | 1.19 | 0.906 | 0.375 | 0.358 | 0.358 | 0.362 | 0.341 | 0.632 | 0.224 | 0.241 | 0.295 | 0.174
23 | EMC-BAC-2 | 1.12 | 1.08 | 1.15 | 1.11 | 1.04 | 0.899 | 0.763 | 0.737 | 0.731 | 0.651 | 1 | 0.926 | 0.964 | 0.9 | 1.04 | 1.09 | 1.16 | 1.15 | 1.04 | 0.947
24 | PC-3 [JPC-3] | 0.871 | 0.884 | 0.932 | 0.884 | 0.842 | 1.06 | 0.968 | 1.1 | 0.98 | 0.963 | 0.863 | 0.838 | 0.904 | 0.814 | 0.864 | 0.663 | 0.677 | 0.755 | 0.579 | 0.734
25 | NCI-H1666 | 0.942 | 0.864 | 0.755 | 0.736 | 0.549 | 1.03 | 1.06 | 1.1 | 0.895 | 0.635 | 0.763 | 0.774 | 0.739 | 0.676 | 0.69 | 1 | 1.1 | 1.05 | 1.01 | 0.972
26 | NCI-H1915 | 0.967 | 0.958 | 1.03 | 0.999 | 0.962 | 0.892 | 0.856 | 0.883 | 0.874 | 0.846 | 0.265 | 0.264 | 0.236 | 0.245 | 0.258 | 0.711 | 0.762 | 0.83 | 0.578 | 0.503
